The record followed here is US10675293B2, “Nucleoside agents for the reduction of the deleterious activity of extended nucleotide repeat containing genes” (The Board of Trustees of the Leland Stanford Junior …, priority 2015, dated 2020).

Assay [1] concerns the target T1, Supt4h-GL1 / NGN-GL2 interaction (Homo sapiens, UniProt O00267+P63272).
T1 construct: the amino terminal domain of Supt5h (NGN); expressed in transfected cells; host or cells: M2-8, a clone of 293-R1 (HEK 293), RSL1-induced
The assay is described as follows: Split Gaussia luciferase complementation assay in M2-8 (HEK-293) cells. Format: cell-based. To be noted: M2-8 cells, RSL1 150 nM. On the procedure:
ii: M2-8 is a cloned 293-R1 cell which can inducibly express pNEBR-X1-Supt4h-G1-NGN-G2 by addition of RSL1. Two point mutations (M431 and M1101) were introduced to the GL1 and GL2 for better stability according to “A high-throughput cell-based Gaussia luciferase reporter assay for identifying modulators of fibulin-3 secretion” published on J Biomol Screen. 2013 July; 18(6):647-58. The cell line was selected by Hygromycin.
Plasmids harboring the Gluc1 and Gluc2 were co-transfected in a 1:1 ratio into 293-R1 cells plated on tissue culture treated 24-well plates using Lipofectamine 2000 according to the manufacturer's instruction. […] Signal intensities (integrated 100 ms) were read on Tecan Infinite M200 or M1000.
Human genes encoding the Supt4h protein or the amino terminal domain of Supt5h (NGN) were each fused with genes that encode subunits (GLuc1 or GLuc2) of Gaussia princeps luciferase to generate Supt4h-GL1 and NGN-GL2. […] The Gausssia luciferase substrate, native Coelenterazine, was added at a final concentration of 10 μg/ml to extracts of cells containing the indicated constructs and the magnitude of luminescence was determined using a luminometer (Tecan Infinite M200) that detects light emitted by luciferase. […] The luciferase activity that is detected is very specific and results only from interaction between the Supt4h and NGN. […]

Assay [2] concerns total Huntingtin protein. The assay is described as follows: Western blot of total HTT in Huntington's disease patient iPSC ND36999. Format: cell-based, human. Conditions: iPSC with 180 CAG repeats, 24 hr. Here is the method: Cell samples were lysed in 30 mM Tris-HCl, pH 8.0, 5 mM NaCl, 0.1% Triton X-100 for 10 min on ice. The supernatants from spinning (14 k rpm for 10 min) were collected. The protein concentrations were determined by BCA assay (Pierce, ThermoFisher). Equal amounts of protein were loaded onto 4-12% gel. After electrophoresis, the gels were transferred to nitrocellulose membranes by wet transfer at 35V for 16 hr. The protein level of mutant HTT, total HTT and tubulin were determined by immunoblotting with anti-poly Glutamine (MAB1574 from Millipore), anti-Huntingtin protein (MAB2166 from Millipore) and anti-alpha tubulin (AJ1034a from ABGENT). Blots were imaged on a Li-Cor Odyssey infrared imager. The bands intensities were determined by Li-Cor Odyssey software.
To test whether the nucleoside 6-Azauridine (HD101) and (−)-6-Azauridine 2′,3′,5′-triacetate (HD106) can affect the expression of proteins with long polyQ domains, one iPSC (induced pluripotent stem cell) line ND36999, which was derived from a Huntington's disease patient who carries one allele of mutant htt gene with 180 CAG repeats, was purchased from the Coriell Institute. The iPSCs were plated into a 24-well plate coated with Matrigel. […] Cells were lysed and the protein concentrations were determined by BCA assay. […] The image (FIG. 10) was taken and the quantification was made by Li-Cor Odyssey imaging system.
A general note: In western blotting, separated proteins are transferred to a membrane and probed.

With `O=c1cnn([C@@H]2O[C@H](CO)[C@@H](O)[C@H]2O)c(=O)[nH]1` [HD101, 6-Azauridine], in assay [1], the “inhibition of Supt4h/NGN interaction (luciferase activity)” value is listed as “inhibiting the interaction between Supt4h/NGN”. In assay [2], the “total Huntingtin protein expression level” value is given as “little effect”.
